From ChEMBL document CHEMBL4387741, “Optimization of novel reversible Bruton's tyrosine kinase inhibitors identified using Tethering-fragment-based screens” (Bioorg Med Chem, 2019)

What was measured:
[1] = target: Dual specificity mitogen-activated protein kinase kinase 5 (Homo sapiens) (UniProt Q13163); experiment: Inhibition of wild-type human partial length MEK5 (L98 to P448 residues) expressed in mammalian expression system at 1 uM by Kinomescan method relative to control
[2] = target: Mitogen-activated protein kinase 11 (Homo sapiens) (UniProt Q15759); experiment: Inhibition of wild-type human full length p38-beta (M1 to Q364 residues) expressed in bacterial expression system at 1 uM by Kinomescan method relative to control
[3] = target: Interleukin-1 receptor-associated kinase 4 (Homo sapiens) (UniProt Q9NWZ3); experiment: Inhibition of wild-type human partial length IRAK4 (M1 to S460 residues) expressed in mammalian expression system at 1 uM by Kinomescan method relative to control
[4] = target: High affinity nerve growth factor receptor (Homo sapiens) (UniProt P04629); experiment: Inhibition of wild-type human partial length TRKA (G475 to G790 residues) expressed in mammalian expression system at 1 uM by Kinomescan method relative to control
[5] = target: Activin receptor type-1B (Homo sapiens) (UniProt P36896); experiment: Inhibition of wild-type human ACVR1B (S187 to I505 residues) expressed in bacterial expression system at 1 uM by Kinomescan method relative to control
[6] = target: Serine/threonine-protein kinase 32A (Homo sapiens) (UniProt Q8WU08); experiment: Inhibition of wild-type human full length YANK1 (M1 to L396 residues) expressed in mammalian expression system at 1 uM by Kinomescan method relative to control
[7] = target: Serine/threonine-protein kinase MRCK gamma (Homo sapiens) (UniProt Q6DT37); experiment: Inhibition of wild-type human partial length DMPK2 (S46 to S408 residues) expressed in bacterial expression system at 1 uM by Kinomescan method relative to control
[8] = target: Ribosomal protein S6 kinase alpha-5 (Homo sapiens) (UniProt O75582); experiment: Inhibition of wild-type human partial length N-terminal RPS6KA5 kinase domain 1 expressed in bacterial expression system at 1 uM by Kinomescan method relative to control
[9] = target: Casein kinase I isoform alpha (Homo sapiens) (UniProt P48729); experiment: Inhibition of wild-type human partial length CSNK1A1 (M1 to L450 residues) expressed in mammalian expression system at 1 uM by Kinomescan method relative to control
[10] = target: Tyrosine-protein kinase Fer (Homo sapiens) (UniProt P16591); experiment: Inhibition of wild-type human partial length FER (S542 to T822 residues) expressed in bacterial expression system at 1 uM by Kinomescan method relative to control
[11] = target: Serine/threonine-protein kinase MARK2 (Homo sapiens) (UniProt Q7KZI7); experiment: Inhibition of wild-type human partial length MARK2 (M1 to R450 residues) expressed in bacterial expression system at 1 uM by Kinomescan method relative to control
[12] = system: Proto-oncogene tyrosine-protein kinase receptor Ret (Homo sapiens), P07949 [V804L]; experiment: Inhibition of human partial length RET V804L mutant (E713 to D1014 residues) expressed in bacterial expression system at 1 uM by Kinomescan method relative to control
[13] = target: Serine/threonine-protein kinase DCLK1 (Homo sapiens) (UniProt O15075); experiment: Inhibition of wild-type human partial length DCAMKL1 (L270 to A662 residues) expressed in mammalian expression system at 1 uM by Kinomescan method relative to control
[14] = system: Phosphatidylinositol 4,5-bisphosphate 3-kinase catalytic subunit alpha isoform (Homo sapiens), P42336 [E545A]; experiment: Inhibition of human partial length PIK3CA E545A mutant (R108 to N1068 residues) expressed in mammalian expression system at 1 uM by Kinomescan method relative to control
[15] = target: Inhibitor of nuclear factor kappa-B kinase subunit beta (Homo sapiens) (UniProt O14920); experiment: Inhibition of wild-type human full length IKK-beta (M1 to S756 residues) expressed in mammalian expression system at 1 uM by Kinomescan method relative to control
[16] = target: Serine/threonine-protein kinase 10 (Homo sapiens) (UniProt O94804); experiment: Inhibition of wild-type human partial length LOK (E16 to V314 residues) expressed in bacterial expression system at 1 uM by Kinomescan method relative to control
[17] = target: Tyrosine-protein kinase Yes (Homo sapiens) (UniProt P07947); experiment: Inhibition of wild-type human partial length YES (T257 to L543 residues) expressed in bacterial expression system at 10 uM by Kinomescan method relative to control
[18] = target: Leucine-rich repeat serine/threonine-protein kinase 2 (Homo sapiens) (UniProt Q5S007); experiment: Inhibition of wild-type human partial length LRRK2 (H970 to E2527 residues) expressed in mammalian expression system at 10 uM by Kinomescan method relative to control
[19] = system: Phosphatidylinositol 4,5-bisphosphate 3-kinase catalytic subunit alpha isoform (Homo sapiens), P42336 [E545K]; experiment: Inhibition of human partial length PIK3CA E545K mutant (R108 to N1068 residues) expressed in mammalian expression system at 10 uM by Kinomescan method relative to control
[20] = target: Fibroblast growth factor receptor 4 (Homo sapiens) (UniProt P22455); experiment: Inhibition of wild-type human partial length FGFR4 (G402 to E713 residues) expressed in bacterial expression system at 10 uM by Kinomescan method relative to control
[21] = target: Serine/threonine-protein kinase WNK3 (Homo sapiens) (UniProt Q9BYP7); experiment: Inhibition of wild-type human partial length WNK3 (M1 to D434 residues) expressed in mammalian expression system at 10 uM by Kinomescan method relative to control
[22] = system: Epidermal growth factor receptor (Homo sapiens), P00533 [UNDEFINED MUTATION]; experiment: Inhibition of human partial length EGFR S752-I759del mutant expressed in bacterial expression system at 10 uM by Kinomescan method relative to control
[23] = target: Serine/threonine-protein kinase tousled-like 2 (Homo sapiens) (UniProt Q86UE8); experiment: Inhibition of wild-type human partial length TLK2 (E424 to N749 residues) expressed in bacterial expression system at 10 uM by Kinomescan method relative to control
[24] = target: Ribosomal protein S6 kinase alpha-6 (Homo sapiens) (UniProt Q9UK32); experiment: Inhibition of wild-type human partial length C-terminal RSK4 kinase domain 2 (I401 to Y711 residues) expressed in bacterial expression system at 10 uM by Kinomescan method relative to control
[25] = target: Rho-associated protein kinase 1 (Homo sapiens) (UniProt Q13464); experiment: Inhibition of wild-type human partial length ROCK1 (M1 to R415 residues) expressed in mammalian expression system at 10 uM by Kinomescan method relative to control
[26] = target: Serine/threonine-protein kinase PAK 3 (Homo sapiens) (UniProt O75914); experiment: Inhibition of wild-type human full length PAK3 (M1 to R544 residues) expressed in bacterial expression system at 10 uM by Kinomescan method relative to control
[27] = target: Serine/threonine-protein kinase OSR1 (Homo sapiens) (UniProt O95747); experiment: Inhibition of wild-type human full length OSR1 (M1 to S527 residues) expressed in mammalian expression system at 10 uM by Kinomescan method relative to control

Phosphatidylinositol 4,5-bisphosphate 3-kinase catalytic subunit alpha isoform (Homo sapiens), P42336 [E545A], sequence (P42336 whole entry E545A, the tested form may be a part, canonical isoform): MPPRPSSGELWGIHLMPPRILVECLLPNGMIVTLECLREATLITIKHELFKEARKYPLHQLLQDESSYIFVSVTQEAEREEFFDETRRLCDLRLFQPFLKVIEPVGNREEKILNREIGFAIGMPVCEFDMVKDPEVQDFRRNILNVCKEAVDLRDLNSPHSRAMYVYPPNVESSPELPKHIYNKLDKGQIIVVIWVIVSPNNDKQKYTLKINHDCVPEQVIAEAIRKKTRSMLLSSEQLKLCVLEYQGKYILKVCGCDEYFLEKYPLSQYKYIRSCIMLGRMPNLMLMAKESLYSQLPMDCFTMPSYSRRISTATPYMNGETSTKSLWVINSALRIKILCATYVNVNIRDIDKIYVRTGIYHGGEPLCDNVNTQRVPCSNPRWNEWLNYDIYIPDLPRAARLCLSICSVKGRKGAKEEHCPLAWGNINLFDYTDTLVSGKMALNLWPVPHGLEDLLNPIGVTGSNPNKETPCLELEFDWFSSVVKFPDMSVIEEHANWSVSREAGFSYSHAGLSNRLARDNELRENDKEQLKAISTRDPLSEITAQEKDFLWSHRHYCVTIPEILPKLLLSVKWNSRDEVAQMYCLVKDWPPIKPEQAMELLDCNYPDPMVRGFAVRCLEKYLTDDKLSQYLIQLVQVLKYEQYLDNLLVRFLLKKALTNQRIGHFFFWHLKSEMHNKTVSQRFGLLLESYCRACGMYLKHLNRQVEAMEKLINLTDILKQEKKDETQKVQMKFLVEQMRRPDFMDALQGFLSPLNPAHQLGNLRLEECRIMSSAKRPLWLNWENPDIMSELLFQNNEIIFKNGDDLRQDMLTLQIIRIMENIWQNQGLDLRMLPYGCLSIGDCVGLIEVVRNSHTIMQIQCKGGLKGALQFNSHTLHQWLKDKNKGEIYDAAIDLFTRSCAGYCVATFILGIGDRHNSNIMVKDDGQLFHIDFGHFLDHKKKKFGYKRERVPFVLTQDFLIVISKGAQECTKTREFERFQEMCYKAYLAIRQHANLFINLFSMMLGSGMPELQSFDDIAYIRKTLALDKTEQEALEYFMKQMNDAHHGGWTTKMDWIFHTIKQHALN
Tyrosine-protein kinase Fer (Homo sapiens), sequence (P16591 whole entry, looked up, the tested form may be a part): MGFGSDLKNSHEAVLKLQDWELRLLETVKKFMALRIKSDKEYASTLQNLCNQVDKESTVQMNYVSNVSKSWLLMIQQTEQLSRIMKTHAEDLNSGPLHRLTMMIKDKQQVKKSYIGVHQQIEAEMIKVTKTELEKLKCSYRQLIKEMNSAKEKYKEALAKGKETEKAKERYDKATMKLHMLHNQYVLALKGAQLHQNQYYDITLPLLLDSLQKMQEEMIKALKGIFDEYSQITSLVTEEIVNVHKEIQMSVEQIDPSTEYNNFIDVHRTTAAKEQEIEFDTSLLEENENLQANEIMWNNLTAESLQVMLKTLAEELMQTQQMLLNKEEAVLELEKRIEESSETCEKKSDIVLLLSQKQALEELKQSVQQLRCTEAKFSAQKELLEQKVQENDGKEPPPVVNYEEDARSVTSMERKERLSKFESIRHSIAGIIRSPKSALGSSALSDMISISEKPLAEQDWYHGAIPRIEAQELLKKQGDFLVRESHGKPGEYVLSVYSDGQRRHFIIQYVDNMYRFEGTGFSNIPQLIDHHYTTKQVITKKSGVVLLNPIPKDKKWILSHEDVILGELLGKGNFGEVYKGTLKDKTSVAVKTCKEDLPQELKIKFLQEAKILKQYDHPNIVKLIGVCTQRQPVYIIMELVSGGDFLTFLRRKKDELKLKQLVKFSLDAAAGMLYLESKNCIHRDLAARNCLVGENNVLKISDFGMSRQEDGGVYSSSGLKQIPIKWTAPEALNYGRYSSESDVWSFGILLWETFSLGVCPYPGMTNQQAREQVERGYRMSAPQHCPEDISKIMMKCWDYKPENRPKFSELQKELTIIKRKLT
Ribosomal protein S6 kinase alpha-6 (Homo sapiens), sequence (Q9UK32 whole entry, the tested form may be a part): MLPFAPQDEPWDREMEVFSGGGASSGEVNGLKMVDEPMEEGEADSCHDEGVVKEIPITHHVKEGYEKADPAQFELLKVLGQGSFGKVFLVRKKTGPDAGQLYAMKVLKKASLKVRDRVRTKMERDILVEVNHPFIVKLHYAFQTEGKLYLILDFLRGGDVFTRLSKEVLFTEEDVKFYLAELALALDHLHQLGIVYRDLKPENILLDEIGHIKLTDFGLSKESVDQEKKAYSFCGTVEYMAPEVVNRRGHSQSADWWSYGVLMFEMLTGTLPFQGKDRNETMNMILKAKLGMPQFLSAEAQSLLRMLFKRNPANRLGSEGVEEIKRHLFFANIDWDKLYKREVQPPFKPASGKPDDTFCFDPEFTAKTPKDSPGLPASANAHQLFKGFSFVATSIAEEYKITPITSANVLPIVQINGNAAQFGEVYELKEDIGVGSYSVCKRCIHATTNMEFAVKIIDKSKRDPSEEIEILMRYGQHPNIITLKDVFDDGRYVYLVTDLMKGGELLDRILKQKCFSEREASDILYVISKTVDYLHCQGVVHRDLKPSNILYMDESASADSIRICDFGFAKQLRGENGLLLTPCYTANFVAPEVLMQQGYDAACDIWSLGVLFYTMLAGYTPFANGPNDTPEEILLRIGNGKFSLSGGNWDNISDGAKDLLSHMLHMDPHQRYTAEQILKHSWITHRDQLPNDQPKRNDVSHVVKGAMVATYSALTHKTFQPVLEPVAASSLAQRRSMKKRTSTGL
Serine/threonine-protein kinase 10 (Homo sapiens), sequence (O94804 whole entry, looked up, the tested form may be a part): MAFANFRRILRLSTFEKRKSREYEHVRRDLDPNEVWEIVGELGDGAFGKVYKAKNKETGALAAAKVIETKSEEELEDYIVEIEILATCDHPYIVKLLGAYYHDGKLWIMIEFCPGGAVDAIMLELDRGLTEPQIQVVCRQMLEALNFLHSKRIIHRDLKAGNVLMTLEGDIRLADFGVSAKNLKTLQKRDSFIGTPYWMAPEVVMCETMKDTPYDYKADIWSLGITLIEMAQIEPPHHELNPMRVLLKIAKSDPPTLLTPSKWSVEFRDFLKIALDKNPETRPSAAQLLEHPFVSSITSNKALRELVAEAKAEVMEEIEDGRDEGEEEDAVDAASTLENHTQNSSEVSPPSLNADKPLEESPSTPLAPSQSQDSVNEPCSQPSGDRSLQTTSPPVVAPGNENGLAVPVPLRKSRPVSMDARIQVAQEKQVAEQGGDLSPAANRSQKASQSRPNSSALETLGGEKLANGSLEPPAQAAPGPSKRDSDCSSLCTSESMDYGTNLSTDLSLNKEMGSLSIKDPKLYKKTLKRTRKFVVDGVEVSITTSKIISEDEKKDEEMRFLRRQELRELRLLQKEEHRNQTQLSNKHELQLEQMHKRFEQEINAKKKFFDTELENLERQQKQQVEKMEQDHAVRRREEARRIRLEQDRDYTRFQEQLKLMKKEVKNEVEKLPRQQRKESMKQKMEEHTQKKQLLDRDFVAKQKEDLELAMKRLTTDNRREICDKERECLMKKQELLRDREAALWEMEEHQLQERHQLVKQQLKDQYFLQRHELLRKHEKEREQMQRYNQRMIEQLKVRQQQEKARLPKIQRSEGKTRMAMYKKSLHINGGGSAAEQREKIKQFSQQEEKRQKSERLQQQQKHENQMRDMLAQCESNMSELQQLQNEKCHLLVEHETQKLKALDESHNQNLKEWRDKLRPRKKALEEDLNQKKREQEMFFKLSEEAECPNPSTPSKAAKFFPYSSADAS
Activin receptor type-1B (Homo sapiens), sequence (P36896 whole entry, the tested form may be a part): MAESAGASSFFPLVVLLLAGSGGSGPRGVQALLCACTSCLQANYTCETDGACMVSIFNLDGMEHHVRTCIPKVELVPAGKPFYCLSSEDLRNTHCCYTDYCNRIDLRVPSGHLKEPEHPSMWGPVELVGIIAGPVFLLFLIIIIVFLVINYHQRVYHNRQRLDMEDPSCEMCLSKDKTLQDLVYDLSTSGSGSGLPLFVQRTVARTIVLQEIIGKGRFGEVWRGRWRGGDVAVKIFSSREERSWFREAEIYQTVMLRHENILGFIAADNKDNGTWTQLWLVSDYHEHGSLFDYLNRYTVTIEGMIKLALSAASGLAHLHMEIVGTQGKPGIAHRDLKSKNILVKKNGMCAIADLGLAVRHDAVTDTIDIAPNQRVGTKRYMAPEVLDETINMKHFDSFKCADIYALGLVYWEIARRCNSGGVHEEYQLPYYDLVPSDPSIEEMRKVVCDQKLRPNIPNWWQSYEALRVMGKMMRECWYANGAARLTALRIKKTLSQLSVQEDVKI
Dual specificity mitogen-activated protein kinase kinase 5 (Homo sapiens), sequence (Q13163 whole entry, the tested form may be a part): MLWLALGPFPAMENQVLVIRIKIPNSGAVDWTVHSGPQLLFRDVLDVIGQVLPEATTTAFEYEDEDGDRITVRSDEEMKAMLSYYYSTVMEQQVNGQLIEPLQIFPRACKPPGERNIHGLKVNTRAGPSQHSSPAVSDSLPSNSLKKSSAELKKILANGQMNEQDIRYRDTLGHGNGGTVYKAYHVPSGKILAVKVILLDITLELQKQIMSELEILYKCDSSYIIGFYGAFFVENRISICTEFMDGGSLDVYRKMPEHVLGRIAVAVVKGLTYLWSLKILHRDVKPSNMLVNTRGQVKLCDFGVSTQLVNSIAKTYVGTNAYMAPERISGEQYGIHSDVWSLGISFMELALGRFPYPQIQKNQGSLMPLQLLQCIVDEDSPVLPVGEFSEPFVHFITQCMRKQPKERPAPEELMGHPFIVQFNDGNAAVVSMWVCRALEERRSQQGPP
Mitogen-activated protein kinase 11 (Homo sapiens), sequence (Q15759 whole entry, the tested form may be a part): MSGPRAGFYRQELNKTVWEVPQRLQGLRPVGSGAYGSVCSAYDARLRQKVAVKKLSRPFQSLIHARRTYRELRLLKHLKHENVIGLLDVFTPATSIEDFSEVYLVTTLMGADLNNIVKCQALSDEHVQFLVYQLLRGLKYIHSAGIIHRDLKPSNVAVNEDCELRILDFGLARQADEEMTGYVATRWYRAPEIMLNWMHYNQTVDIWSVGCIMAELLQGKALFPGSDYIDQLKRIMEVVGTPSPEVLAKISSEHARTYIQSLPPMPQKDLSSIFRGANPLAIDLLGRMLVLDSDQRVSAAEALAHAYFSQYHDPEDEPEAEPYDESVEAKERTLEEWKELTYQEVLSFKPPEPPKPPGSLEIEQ

O=C(Nc1cccc([C@@H]2CN(c3ncnc4[nH]ccc34)CCN2CCO)c1)Nc1c(F)cccc1N1CCCC1
inhibition [1]: 67%
inhibition [2]: 92%
inhibition [3]: 91%
inhibition [4]: 56%
inhibition [5]: 83%
inhibition [6]: 100%
inhibition [7]: 100%
inhibition [8]: 99%
inhibition [9]: 81%
inhibition [10]: 82%
inhibition [11]: 69%
inhibition [12]: 0.2%
inhibition [13]: 36%
inhibition [14]: 65%
inhibition [15]: 74%
inhibition [16]: 11%

O=C(Nc1cccc([C@H]2CCCN(c3ncnc4[nH]ccc34)C2)c1)Nc1ccccc1N1CCCC1
inhibition [17]: 62%
inhibition [18]: 96%
inhibition [19]: 64%
inhibition [20]: 96%
inhibition [21]: 61%
inhibition [22]: 78%
inhibition [23]: 89%
inhibition [24]: 50%
inhibition [25]: 46%
inhibition [26]: 4.8%
inhibition [27]: 81%
